Results from ChEMBL document CHEMBL1130606, “Synthesis and cytotoxicity of acetyl-4H,9H-naphtho[2,3-b]thiophene-4,9-diones” (1998).

Experiments:
KB = test: Effective cytotoxic dose against KB cells was evaluated; format: functional; conditions: Homo sapiens, read-out: ED50 (the source's name)
LOX IMVI = test: Compound was evaluated for cytotoxicity against LOX IMVI melanoma cell line; format: functional; conditions: Homo sapiens
SR = test: Compound was evaluated for cytotoxicity against SR leukemia cell line; format: functional; conditions: Homo sapiens
NCI-H460 [1] = test: Compound was evaluated for cytotoxicity against NCI-H460 non small cell kung cancer cell line; format: functional; conditions: Homo sapiens
SNB-19 [2] = test: Compound was evaluated for cytotoxicity against SNB-19 CNS cancer cell line; format: functional; conditions: Homo sapiens
CCRF-CEM = test: Compound was evaluated for cytotoxicity against CCRF-CEM leukemia cell line; format: functional; conditions: Homo sapiens
SW-620 [3] = test: Compound was evaluated for cytotoxicity against SW-620 colon cancer cell line; format: functional; conditions: Homo sapiens
MDA-N = test: Compound was evaluated for cytotoxicity against MDA-N breast cancer cell line; format: functional; conditions: Homo sapiens
SF-539 [4] = test: Compound was evaluated for cytotoxicity against SF-539 CNS cancer cell line; format: functional; conditions: Homo sapiens
MDA-MB-435 = test: Compound was evaluated for cytotoxicity against MDA-MB-435 breast cancer cell line; format: functional; conditions: Homo sapiens
OVCAR-3 = test: Compound was evaluated for cytotoxicity against OVCAR-3 Ovarian cancer cell line; format: functional; conditions: Homo sapiens
MCF7 [5] = test: Compound was evaluated for cytotoxicity against MCF-7 breast cancer cell line; format: functional; conditions: Homo sapiens
IGROV-1 = test: Compound was evaluated for cytotoxicity against IGROV1 Ovarian cancer cell line; format: functional; conditions: Homo sapiens
SK-MEL-5 = test: Compound was evaluated for cytotoxicity against SK-MEL-5 melanoma cell line; format: functional; conditions: Homo sapiens
HCT-15 [6] = test: Compound was evaluated for cytotoxicity against HCT-15 colon cancer cell line; format: functional; conditions: Homo sapiens
NCI-H522 [7] = test: Compound was evaluated for cytotoxicity against […] non small cell kung cancer cell line; format: functional; conditions: Homo sapiens
NCI/ADR-RES = test: Compound was evaluated for cytotoxicity against MCF 7/ADR-RES breast cancer cell line; conditions: Homo sapiens
MOLT-4 = test: Compound was evaluated for cytotoxicity against MOLT-4 leukemia cell line; format: functional; conditions: Homo sapiens
NCI-H23 [8] = test: Compound was evaluated for cytotoxicity against NCI-H23 non small cell kung cancer cell line; format: functional; conditions: Homo sapiens
NCI-H23 [9] = test: Compound was evaluated for cytotoxicity against NCI-H23 non small cell lung cancer cell line; format: functional; conditions: Homo sapiens
SNB-19 [10] = test: Compound was evaluated for cytotoxicity against SNB-19 CNS cancer cell line; conditions: Homo sapiens
SW-620 [11] = test: Compound was evaluated for cytotoxicity against SW-620 colon cancer cell line; conditions: Homo sapiens
NCI-H460 [12] = test: Compound was evaluated for cytotoxicity against NCI-H460 non small cell lung cancer cell line; format: functional; conditions: Homo sapiens
NCI-H522 [13] = test: Compound was evaluated for cytotoxicity against NCI-H522 non small cell lung cancer cell line; conditions: Homo sapiens
MCF7 [14] = test: Compound was evaluated for cytotoxicity against MCF-7 breast cancer cell lines; format: functional; conditions: Homo sapiens
SF-539 [15] = test: Compound was evaluated for cytotoxicity against SF-539 CNS cancer cell line; conditions: Homo sapiens
HCT-15 [16] = test: Compound was evaluated for cytotoxicity against HCT-15 colon cancer cell line; conditions: Homo sapiens
NCI-H522 [17] = test: Compound was evaluated for cytotoxicity against […] non small cell lung cancer cell line; format: functional; conditions: Homo sapiens

Row | SMILES | EC50 (KB) | GI50 (LOX IMVI) | GI50 (SNB-19 [2]) | GI50 (CCRF-CEM) | GI50 (SW-620 [3]) | GI50 (MDA-N) | GI50 (SF-539 [4]) | GI50 (MDA-MB-435) | GI50 (OVCAR-3) | GI50 (MCF7 [5]) | GI50 (IGROV-1) | GI50 (SK-MEL-5) | GI50 (HCT-15 [6]) | GI50 (NCI/ADR-RES) | GI50 (MOLT-4) | GI50 (NCI-H23 [9]) | GI50 (NCI-H460 [12]) | also measured
1 | CC(=O)c1ccc2c(c1)C(=O)c1scc(C(C)=O)c1C2=O | 0.45 µM |  |  |  |  |  |  |  |  |  |  |  |  |  |  |  |  | 
2 | CC(=O)c1ccc2c(c1)C(=O)c1sc(C(C)=O)cc1C2=O | ~1.5 µM | 0.219 µM | 1.35 µM | 0.182 µM | 0.204 µM | 0.316 µM | 0.355 µM | 0.178 µM | 0.331 µM | 0.316 µM | 0.427 µM | 0.174 µM | 0.0407 µM | 0.324 µM | 0.0661 µM |  |  | GI50 (SR): 0.0246 µM; GI50 (NCI-H460 [1]): 0.363 µM; GI50 (NCI-H522 [7]): 0.224 µM; GI50 (NCI-H23 [8]): 0.603 µM
3 | CC(=O)c1csc2c1C(=O)c1ccccc1C2=O |  | 2.34 µM |  | 1.55 µM |  | 0.933 µM |  | 0.324 µM | 3.55 µM |  | 2.45 µM | 0.17 µM |  | 2.88 µM | < 0.01 µM | 1.05 µM | 1.32 µM | GI50 (SNB-19 [10]): 1.78 µM; GI50 (SW-620 [11]): 2.19 µM; GI50 (NCI-H522 [13]): 1.74 µM; GI50 (MCF7 [14]): 2.09 µM; GI50 (SF-539 [15]): 2.04 µM; GI50 (HCT-15 [16]): 17.4 µM
4 | CC(=O)c1cc2c(s1)C(=O)c1ccccc1C2=O |  | 0.347 µM | 0.501 µM | 1 µM | 0.457 µM | 1.2 µM | 0.759 µM | 0.339 µM | 0.501 µM | 1.7 µM | 1.78 µM | 0.347 µM | 0.708 µM | 1.91 µM | 2.04 µM | 0.447 µM | 0.457 µM | GI50 (NCI-H522 [17]): 0.407 µM
5 | CC(=O)c1cc2c(o1)C(=O)c1ccccc1C2=O [NAPABUCASIN] | 4.2 µM |  |  |  |  |  |  |  |  |  |  |  |  |  |  |  |  | 
